One may read the IC50 as the concentration that gives 50% inhibition.

The results in this text go back to patent US20080114007A1 (priority 2006, published 2008).

The test addresses CSF-1R (Homo sapiens, UniProt P07333). The test can be described thus: Peptide (non-phosphorylated) assay, fluorescence polarization competition immunoassay. It counts as biochemical. The settings on record: 0.7 nM CSF-1R, 308 μM SYEGNSYTFIDPTQ peptide, 1 mM ATP, 80 min; mean of at least three determinations; read-out: c-fms Peptide IC50. The procedure, abridged: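 Read-out is fluorescence polarization: after EDTA quench, anti-phosphotyrosine antibody plus PTK green tracer compete with the phosphorylated peptide for 30 min. The CSF-1R reaction itself ran 80 min at room temperature after ATP addition. DMSO (4%) wells served as controls, positive controls pre-treated with EDTA.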
On the technique in general: Polarisation of emitted light reports the rotation of a fluorescent probe.

Chain of CSF-1R (P07333 20-972): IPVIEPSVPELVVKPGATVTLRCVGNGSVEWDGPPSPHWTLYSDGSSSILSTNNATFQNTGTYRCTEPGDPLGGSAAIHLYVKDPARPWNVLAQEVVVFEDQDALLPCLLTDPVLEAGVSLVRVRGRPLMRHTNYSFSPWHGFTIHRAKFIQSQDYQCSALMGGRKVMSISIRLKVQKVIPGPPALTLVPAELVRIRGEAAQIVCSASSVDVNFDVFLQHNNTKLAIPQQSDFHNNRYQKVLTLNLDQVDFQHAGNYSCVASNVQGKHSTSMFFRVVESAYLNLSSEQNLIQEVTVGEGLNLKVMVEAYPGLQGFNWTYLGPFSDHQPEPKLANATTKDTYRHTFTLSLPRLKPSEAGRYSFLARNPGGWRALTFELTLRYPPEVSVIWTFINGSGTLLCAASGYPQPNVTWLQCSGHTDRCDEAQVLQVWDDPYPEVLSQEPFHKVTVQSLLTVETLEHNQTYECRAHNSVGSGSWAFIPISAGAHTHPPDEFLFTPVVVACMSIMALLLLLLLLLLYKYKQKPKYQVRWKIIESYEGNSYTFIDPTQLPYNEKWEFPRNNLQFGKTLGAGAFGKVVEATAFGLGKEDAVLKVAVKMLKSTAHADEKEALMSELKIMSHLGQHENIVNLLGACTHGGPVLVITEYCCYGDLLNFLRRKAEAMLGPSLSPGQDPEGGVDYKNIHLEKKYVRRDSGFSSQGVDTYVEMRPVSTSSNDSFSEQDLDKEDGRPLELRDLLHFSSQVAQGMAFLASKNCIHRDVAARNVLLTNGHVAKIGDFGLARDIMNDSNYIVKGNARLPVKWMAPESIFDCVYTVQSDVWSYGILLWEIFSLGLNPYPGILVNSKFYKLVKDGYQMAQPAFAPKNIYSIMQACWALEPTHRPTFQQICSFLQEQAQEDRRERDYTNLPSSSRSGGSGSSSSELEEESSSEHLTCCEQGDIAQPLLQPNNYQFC

As to `CCc1ccc(-n2cc(C(=O)NOC)c(=O)c3cnc(Nc4ccc(CCN5CC(F)(F)C5)cc4)nc32)cc1` [Cpd 269, 2-{4-[2-(3,3-difluoro-azetidin-1-yl)-ethyl]-phenylamino}-8-(4-ethyl-phenyl)-5-oxo-5,8-dihydro-pyrido[2,3-d]pyrimidine-6-carboxylic acid methoxy-amide], the half-maximal inhibitory concentration (IC50) was 1.5 nM. As to `CONC(=O)c1cn(-c2ccc3c(c2)CCC3)c2nc(Nc3ccc(CCN4CC(F)(F)C4)cc3)ncc2c1=O` [Cpd 270, 2-{4-[2-(3,3-difluoro-azetidin-1-yl)-ethyl]-phenylamino}-8-indan-5-yl-5-oxo-5,8-dihydro-pyrido[2,3-d]pyrimidine-6-carboxylic acid methoxy-amide], the IC50 came out at 1.6 nM. Turning to `CONC(=O)c1cn(-c2ccc3c(c2)CCC3)c2nc(Nc3cccc(C4CCCN(C)C4)c3)ncc2c1=O` (stereo not drawn) [Cpd 271, 8-indan-5-yl-2-[3-(1-methyl-piperidin-3-yl)-phenylamino]-5-oxo-5,8-dihydro-pyrido[2,3-d]pyrimidine-6-carboxylic acid methoxy-amide], the IC50 turned out to be 3.2 nM. The figure for `CONC(=O)c1cn(-c2ccc3c(c2)CCC3)c2nc(Nc3cccc(C4(O)CCN(C)CC4)c3)ncc2c1=O` [Cpd 272, 2-[3-(4-hydroxy-1-methyl-piperidin-4-yl)-phenylamino]-8-indan-5-yl-5-oxo-5,8-dihydro-pyrido[2,3-d]pyrimidine-6-carboxylic acid methoxy-amide] is 0.88 nM; for `CONC(=O)c1cn(-c2ccc3c(c2)CCC3)c2nc(Nc3cccc(C4CCN(C)CC4)c3)ncc2c1=O` [Cpd 273, 8-indan-5-yl-2-[3-(1-methyl-piperidin-4-yl)-phenylamino]-5-oxo-5,8-dihydro-pyrido[2,3-d]pyrimidine-6-carboxylic acid methoxy-amide] it is 1 nM; for `CONC(=O)c1cn(-c2ccc3c(c2)CCC3)c2nc(Nc3cccc(C4(O)CCNC4)c3)ncc2c1=O` (stereo not drawn) [Cpd 274, 2-[3-(3-hydroxy-pyrrolidin-3-yl)-phenylamino]-8-indan-5-yl-5-oxo-5,8-dihydro-pyrido[2,3-d]pyrimidine-6-carboxylic acid methoxy-amide] it is 0.44 nM. Then `CONC(=O)c1cn(-c2ccc3c(c2)CCC3)c2nc(Nc3cccc(C4(O)CCCNC4)c3)ncc2c1=O` (stereo not drawn) [Cpd 275, 2-[3-(3-hydroxy-piperidin-3-yl)-phenylamino]-8-indan-5-yl-5-oxo-5,8-dihydro-pyrido[2,3-d]pyrimidine-6-carboxylic acid methoxy-amide], with 0.66 nM.

Consider `CONC(=O)c1cn(-c2ccc3c(c2)CCC3)c2nc(Nc3cccc(C4(O)CCN(CC(F)(F)F)CC4)c3)ncc2c1=O` [Cpd 277, 2-{3-[4-hydroxy-1-(2,2,2-trifluoro-ethyl)-piperidin-4-yl]-phenylamino}-8-indan-5-yl-5-oxo-5,8-dihydro-pyrido[2,3-d]pyrimidine-6-carboxylic acid methoxy-amide], for which the IC50 stood at 2.7 nM. Then `CCc1ccc(-n2cc(C(=O)NOC)c(=O)c3cnc(Nc4cccc(C5(O)CCCN(CC)C5)c4)nc32)cc1` (stereo not drawn) [Cpd 278, 2-[3-(1-ethyl-3-hydroxy-piperidin-3-yl)-phenylamino]-8-(4-ethyl-phenyl)-5-oxo-5,8-dihydro-pyrido[2,3-d]pyrimidine-6-carboxylic acid methoxy-amide], with 4.9 nM; and `CCc1ccc(-n2cc(C(=O)NOC)c(=O)c3cnc(Nc4ccc5c(c4)CCN5C(C)=O)nc32)cc1` [Cpd 279, 2-(1-acetyl-2,3-dihydro-1H-indol-5-ylamino)-8-(4-ethyl-phenyl)-5-oxo-5,8-dihydro-pyrido[2,3-d]pyrimidine-6-carboxylic acid methoxy-amide], with 0.3 nM; and `CCc1ccc(-n2cc(C(=O)NOC)c(=O)c3cnc(Nc4ccc5c(c4)CCN5S(C)(=O)=O)nc32)cc1` [Cpd 280, 8-(4-ethyl-phenyl)-2-(1-methanesulfonyl-2,3-dihydro-1H-indol-5-ylamino)-5-oxo-5,8-dihydro-pyrido[2,3-d]pyrimidine-6-carboxylic acid methoxy-amide], with 0.4 nM. Regarding `CCc1ccc(-n2cc(C(=O)NOC)c(=O)c3cnc(Nc4ccc5c(c4)N(C(C)=O)CC5)nc32)cc1` [Cpd 281, 2-(1-acetyl-2,3-dihydro-1H-indol-6-ylamino)-8-(4-ethyl-phenyl)-5-oxo-5,8-dihydro-pyrido[2,3-d]pyrimidine-6-carboxylic acid methoxy-amide], the IC50 worked out at 1.5 nM. As for `CCc1ccc(-n2cc(C(=O)NOC)c(=O)c3cnc(Nc4ccc5c(c4)CNCC5)nc32)cc1` [Cpd 282, 8-(4-ethyl-phenyl)-5-oxo-2-(1,2,3,4-tetrahydro-isoquinolin-7-ylamino)-5,8-dihydro-pyrido[2,3-d]pyrimidine-6-carboxylic acid methoxy-amide], the IC50 was 0.2 nM. In the case of `CONC(=O)c1cn(-c2ccc3c(c2)CCC3)c2nc(Nc3ccc(Cn4cncn4)cc3)ncc2c1=O` [Cpd 283, 8-indan-5-yl-5-oxo-2-(4-[1,2,4]triazol-1-ylmethyl-phenylamino)-5,8-dihydro-pyrido[2,3-d]pyrimidine-6-carboxylic acid methoxy-amide], the IC50 was determined as 0.9 nM. For `CONC(=O)c1cn(-c2ccc3c(c2)CCC3)c2nc(Nc3ccc(-n4cccn4)cc3)ncc2c1=O` [Cpd 284, 8-indan-5-yl-5-oxo-2-(4-pyrazol-1-yl-phenylamino)-5,8-dihydro-pyrido[2,3-d]pyrimidine-6-carboxylic acid methoxy-amide], the IC50 was 2.2 nM. Regarding `CCc1ccc(-n2cc(C(=O)NOC)c(=O)c3cnc(Nc4ccc5[nH]ccc5c4)nc32)cc1` [Cpd 285, 8-(4-ethyl-phenyl)-2-(1H-indol-5-ylamino)-5-oxo-5,8-dihydro-pyrido[2,3-d]pyrimidine-6-carboxylic acid methoxy-amide], the IC50 was 0.8 nM. As to `CCc1ccc(-n2cc(C(=O)NOC)c(=O)c3cnc(Nc4ccc5cc[nH]c5c4)nc32)cc1` [Cpd 286, 8-(4-ethyl-phenyl)-2-(1H-indol-6-ylamino)-5-oxo-5,8-dihydro-pyrido[2,3-d]pyrimidine-6-carboxylic acid methoxy-amide], the IC50 was determined as 1.3 nM. For the molecule `CONC(=O)c1cn(-c2ccc3c(c2)CCC3)c2nc(Nc3ccc4[nH]ccc4c3)ncc2c1=O` [Cpd 287, 8-indan-5-yl-2-(1H-indol-5-ylamino)-5-oxo-5,8-dihydro-pyrido[2,3-d]pyrimidine-6-carboxylic acid methoxy-amide], the IC50 was determined as 0.9 nM. Take `CCc1ccc(-n2cc(C(=O)NOC)c(=O)c3cnc(Nc4ccc5cn[nH]c5c4)nc32)cc1` [Cpd 288, 8-(4-ethyl-phenyl)-2-(1H-indazol-6-ylamino)-5-oxo-5,8-dihydro-pyrido[2,3-d]pyrimidine-6-carboxylic acid methoxy-amide]: the IC50 amounted to 1.5 nM. Then `CONC(=O)c1cn(-c2ccc3c(c2)CCC3)c2nc(Nc3ccc4cc[nH]c4c3)ncc2c1=O` [Cpd 289, 8-indan-5-yl-2-(1H-indol-6-ylamino)-5-oxo-5,8-dihydro-pyrido[2,3-d]pyrimidine-6-carboxylic acid methoxy-amide], with 2 nM; and `CCc1ccc(-n2cc(C(=O)NOC)c(=O)c3cnc(Nc4ccc5c(ccn5C)c4)nc32)cc1` [Cpd 290, 8-(4-ethyl-phenyl)-2-(1-methyl-1H-indol-5-ylamino)-5-oxo-5,8-dihydro-pyrido[2,3-d]pyrimidine-6-carboxylic acid methoxy-amide], with 0.9 nM.
